Legend:
Type in all cases: cell-based
MOLM-13 cells = experiment: Viability assay (96 hours), Alamar Blue, single agent
Procedure: (§1) AML cell lines were maintained in RPMI 10% FBS medium at 37° C. in a humidified incubator with controlled 5% CO2 atmosphere. Cell freezing and thawing was performed following recommendation from ATCC. Genetic profiling of the cell lines used is available in table 2. […] Three wells were reserved for each experimental condition; medium-only and vehicle-treated controls were also added for background correction and normalization respectively. […] Alamar Blue® is a cell viability indicator that uses the natural reducing power of living cells to convert resazurin to the fluorescent molecule, resorufin^43.

KASUMI-1 cells = experiment: as above
Procedure: as §1

THP-1 cells = experiment: as above
Procedure: as §1

MV(4;11) cells = experiment: as above
Procedure: as §1

HL-60 cells = experiment: as above
Procedure: as §1

OCI-AML3 cells = experiment: as above
Procedure: as §1

MOLT4 cells = experiment: Viability assay (10 days), Alamar Blue, single agent
Procedure: MOLT4 cells were maintained in RPMI 10% FBS medium at 37° C. in a humidified incubator with controlled 5% CO2 atmosphere. Cell freezing and thawing was performed following recommendation from ATCC. Genetic profiling of the cell lines used is available in table 4.
2.1.2 Viability Assays (10 Days)
Three wells were reserved for each experimental condition; medium-only and vehicle-treated controls were also added for background correction and normalization respectively. After seeding, 50 μL of medium containing 8 1:3 serial dilution of ORY-1001 were added to the cells (range 0.015-100 nM). Cells were then incubated for 6 days at 37° C. in a controlled 5% CO2 atmosphere. On the sixth day, 1004, of medium with serial dilutions of ORY-1001 (as described previously) or vehicle were added to the cells. Medium without compound (100μ) was added to background control.
After 4 additional days of incubation, cell viability was evaluated using the Alamar Blue® staining as detailed in the section 1.1.2.

OCI-AML2 cells = experiment: Viability assay (96 hours), Alamar Blue, single agent; conditions: Homo sapiens, OCI-AML2, 96 h, read-out: EC50 (viability)
Procedure: as §1

Compound | EC50 (viability) (MOLM-13 cells; MOLM-13, 96 hours, single agent) | EC50 (viability) (KASUMI-1 cells; KASUMI-1, 96 hours, single agent) | EC50 (viability) (THP-1 cells; THP-1, 96 hours, single agent) | EC50 (viability) (MV(4;11) cells; MV(4;11), 96 hours, single agent) | EC50 (viability) (HL-60 cells; HL-60, 96 hours, single agent) | EC50 (viability) (OCI-AML3 cells; OCI-AML3, 96 hours, single agent) | EC50 (viability) (MOLT4 cells; MOLT4, 10 days of treatment, single agent) | Effect on viability of MOLT-4 cells (MOLT4 cells; shorter treatment (96 hours), data not shown) | EC50 (MOLM-13 cells; Homo sapiens, MOLM-13, 96 h, read-out: EC50 (viability)) | EC50 (KASUMI-1 cells; Homo sapiens, Kasumi 1, 96 h, read-out: EC50 (viability)) | EC50 (OCI-AML2 cells) | EC50 (THP-1 cells; Homo sapiens, THP-1, 96 h, read-out: EC50 (viability)) | EC50 (MV(4;11) cells; Homo sapiens, MV4-11, 96 h, read-out: EC50 (viability)) | EC50 (HL-60 cells; Homo sapiens, HL-60, 96 h, read-out: EC50 (viability)) | EC50 (OCI-AML3 cells; Homo sapiens, OCI-AML-3, 96 h, read-out: EC50 (viability))
N[C@H]1CC[C@H](N[C@@H]2C[C@H]2c2ccccc2)CC1 [ORY-1001, (trans)-N1-((1R,2S)-2-phenylcyclopropyl)cyclohexane-1,4-diamine] | sub-nanomolar | sub-nanomolar | sub-nanomolar | sub-nanomolar | sub-nanomolar | sub-nanomolar | sub-nanomolar | not affecting the viability | – | – | – | – | – | – | –
O=C(CCCCCCNC(=O)c1cnc(N(c2ccccc2)c2ccccc2)nc1)NO [Rocilinostat, Ricolinostat, reference compound] | – | – | – | – | – | – | – | – | 500 to 3000 nM | 500 to 3000 nM | 500 to 3000 nM | 500 to 3000 nM | 500 to 3000 nM | 500 to 3000 nM | 500 to 3000 nM

— patent US20170281566A1, “COMBINATIONS OF LSD1 INHIBITORS FOR THE TREATMENT OF HEMATOLOGICAL MALIGNANCIES” (HOFFMANN-LA ROCHE INC., priority 2016, published 2017)
